Assay results: patent EP4624471A1, “PKMYT1 INHIBITOR, PREPARATION METHOD THEREFOR, AND PHARMACEUTICAL COMPOSITION AND USE THEREOF” (Shanghai Qilu Pharmaceutical Research and Development …, priority 2022, dated 2024)
pIC50: −log10 of the molar value.

What was measured:
[1] = biological target: T1, PKMYT1 enzyme (Homo sapiens, UniProt Q99640); test: PKMYT1 enzyme inhibition activity, ADP-GLO method; format: biochemical; conditions: PKMYT1 enzyme 10 nM, ATP 5 µM, 37°C 90 minutes; read-out: ADP-GLO IC50
T1 construct: purchased Thermo Scientific A33387
T1 sequence (Q99640 1-499): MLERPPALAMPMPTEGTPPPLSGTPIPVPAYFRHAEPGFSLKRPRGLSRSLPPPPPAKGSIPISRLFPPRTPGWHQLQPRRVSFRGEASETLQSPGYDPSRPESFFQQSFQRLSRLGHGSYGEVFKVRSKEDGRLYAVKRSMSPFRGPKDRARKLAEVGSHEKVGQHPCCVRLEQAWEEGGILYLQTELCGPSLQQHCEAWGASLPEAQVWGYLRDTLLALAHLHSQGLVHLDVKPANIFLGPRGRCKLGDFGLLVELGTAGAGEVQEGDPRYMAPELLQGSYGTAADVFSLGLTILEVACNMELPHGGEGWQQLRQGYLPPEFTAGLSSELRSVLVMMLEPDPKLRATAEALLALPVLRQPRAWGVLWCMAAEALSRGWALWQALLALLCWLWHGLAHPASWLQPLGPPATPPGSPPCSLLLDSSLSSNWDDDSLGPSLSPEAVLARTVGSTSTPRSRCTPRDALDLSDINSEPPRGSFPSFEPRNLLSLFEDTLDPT

[2] = test system: HCC1569 cells; test: Cytostatic activity, CTG assay (HCC1569); format: cell-based; conditions: 5 days
Procedure: Biological test example 2. Cytostatic activity of compounds of the present disclosure
CTG assay (HCC1569) was used to verify the biological activity of some of the example compounds of the present disclosure.
HCC1569 cells were purchased from ATCC (Cat. No.: CRL-2330) and cultured in a 37°C, 5% CO2 cell culture incubator. HCC1569 complete medium: RPMI-1640 liquid medium (Cat. No.: Gibico 11875-093), 20% FBS (Cat. No.: Gibico 10099-141), 1% Pen Strep (Cat. No.: Gibico 15070-063).
HCC1569 cells in a 75 cm^2 culture flask were digested with 2 mL of trypsin for 2-3 min, and then neutralized with 2 mL of 1640 complete medium. The mixture was centrifuged at 1200 rpm for 5 minutes. Cells were resuspended using 4 mL of 1640 complete medium. 500 µL of cell suspension was taken for cell counting using Vi-CELL-XR cell counter.
Using a Multidrop instrument, the HCC1569 cells were seeded in a 384-well plate at a density of 1000 cells per well (50 µL 1640 Growth Media) and administrated 24 hours later.
Using an ultra-micro pipette, the test compound (concentration: 3.33 mM, dissolved in DMSO) was diluted with 10 µM as the highest starting concentration, and then sequentially diluted in 10 gradients at a ratio of 1:3 (10000 nM, 3333 nM, 1111 nM, 370 nM, 123 nM, 41 nM, 13.7 nM, 4.6 nM, 1.5 nM, 0.5 nM) for administration treatment, with two duplicate wells for each concentration; 14 wells for positive and negative controls were set, with the positive control being the duplicate wells of 10 µM positive compound and the negative control being the duplicate wells of DMSO.
After the administration was completed, the cells were placed in a 37°C incubator for further culture for 5 days. After 5 days, 25 µL of CTG buffer was added to each well for CTG assay detection, and analyzed using a microplate reader. CTG readings were analyzed.
a = CTG value (highest concentration), b = CTG value (blank well), x = CTG value(test well).
IC50 was calculated using GraphPad PRISM 8.
Log10 (A compound concentration) was used for statistical calculation. (2) The data were input into GraphPad PRISM 8, and Analysis was selected. (3) Nonlinear regression (curve fit) was selected. (4) Log (inhibitor) vs. response-Variable slope was selected. (5) The calculation formula was selected, and the calculation was carried out according to the following formula: Y = Bottom + (Top-Bottom)/(1+10^((LogIC50-X)*HillSlope)), X: logarithm of dose or concentration, Y: response value, Top and Bottom: peak and bottom values. (6) The data were fitted to obtain IC50 values. (7) The fitting conditions were adjusted according to the specific data. Appropriate Constraint conditions were adjusted for Bottom, Top, and HillSlope. The curve that best fits the actual situation has been reached.

Compound	pIC50 [1]	pIC50 ([2]; Homo sapiens, HCC1569, 120 h)	pIC50 [2]	pIC50 ([2]; Homo sapiens, 120 h)
Cc1nc2c(cc1C1CC1)c(C(N)=O)c(N)n2-c1c(C)c(O)cc(F)c1C [Example 110]	8.24	7.82		
Cc1c(O)cc(F)c(C)c1-n1c(N)c(C(N)=O)c2cc(-c3ccccc3)cnc21 (racemic) [Example 119]	7.82	7.36		
C=Cc1cc2c(C(N)=O)c(N)n(-c3c(C)cc(F)c(O)c3C)c2nc1C (atropisomer, axis not shown) [Example 142]	7.68	7.06		
CCc1cc2c(C(N)=O)c(N)n(-c3c(C)c(O)cc(F)c3C)c2nc1C (atropisomer, axis not shown) [Example 132]	8.05		7.52	
Cc1cc2c(C(N)=O)c(N)n(-c3c(C)c(O)cc(F)c3C)c2nc1-c1cccnc1 [Example 123]	8.19	7.24		
Cc1cc(F)c(O)c(C)c1-n1c(N)c(C(N)=O)c2cc(N3CCC3)c(C)nc21 (atropisomer, axis not shown) [Example 173.2]	8.35	7.19		
Cc1nc2c(cc1-c1cccnc1)c(C(N)=O)c(N)n2-c1c(C)c(O)cc(F)c1C [Example 131]	7.95	7.64		
Cc1cc(F)c(O)c(C)c1-n1c(N)c(C(N)=O)c2cc(C(C)C)c(C)nc21 (racemic) [Example 159]	7.82	7.25		
Cc1c(O)cc(F)c(C)c1-n1c(N)c(C(N)=O)c2cc(C(C)C)cnc21 (racemic) [Example 113]	8.08	7.74		
Cc1cc(F)c(O)c(C)c1-n1c(N)c(C(N)=O)c2cc(C3CC3)c(C)nc21 (single isomer, unassigned) [Example 141.1]	8.59	7.21		
Cc1cc(F)c(O)c(C)c1-n1c(N)c(C(N)=O)c2cc(C3CC3)c(C)nc21 (atropisomer, axis not shown) [Example 141]	8.24	7.12		
CCc1cc2c(C(N)=O)c(N)n(-c3c(C)c(O)cc(F)c3C)c2nc1C (atropisomer, axis not shown) [Example 132.1]	8.21		7.96	
Cc1nc2c(cc1-c1cnn(C)c1)c(C(N)=O)c(N)n2-c1c(C)c(O)cc(F)c1C [Example 128]	7.77	7.16		
Cc1c(O)cc(F)c(C)c1-n1c(N)c(C(N)=O)c2cc(Cl)cnc21 [Example 81]	8.04	7.18		
Cc1c(O)cc(F)c(C)c1-n1c(N)c(C(N)=O)c2cc3c(nc21)CCC3 [Example 179]	8.50	7.66		
Cc1cc(F)c(O)c(C)c1-n1c(N)c(C(N)=O)c2cc(Br)c(C)nc21 [Example 58, 2-Amino-5-bromo-1-(4-fluoro-3-hydroxy-2,6-dimethylphenyl)-6-methyl-1H-pyrrolo[2,3-b]pyridine-3-carboxamide]	8.45			7.15
Cc1c(O)cc(F)c(C)c1-n1c(N)c(C(N)=O)c2cc3c(nc21)CCO3 [Example 181]	7.46	7.20		
Cc1c(O)cc(F)c(C)c1-n1c(N)c(C(N)=O)c2cc(Br)cnc21 [Example 99]	8.01	7.40		
Cc1nc2c(cc1F)c(C(N)=O)c(N)n2-c1c(C)c(O)cc(F)c1C [Example 105]	8.61	7.27		
Cc1c(O)cc(F)c(C)c1-n1c(N)c(C(N)=O)c2cc(C3CC3)cnc21 [Example 80]	8.45	7.80		
C=C(C)c1cnc2c(c1)c(C(N)=O)c(N)n2-c1c(C)c(O)cc(F)c1C (atropisomer, axis not shown) [Example 133]	8.18	7.74		

Compound	pIC50 [1]	pIC50 ([2]; Homo sapiens, HCC1569, 120 h)	pIC50 [2]	pIC50 ([2]; Homo sapiens, 120 h)
Cc1nc2c(cc1-c1ccncc1)c(C(N)=O)c(N)n2-c1c(C)c(O)cc(F)c1C [Example 129]	7.98	7.42		
Cc1nc2c(cc1C1=CCCC1)c(C(N)=O)c(N)n2-c1c(C)c(O)cc(F)c1C [Example 116]	7.59	7.55		
C=Cc1nc2c(cc1C)c(C(N)=O)c(N)n2-c1c(C)c(O)cc(F)c1C [Example 122]	8.06	7.55		
Cc1nc2c(cc1C(F)(F)F)c(C(N)=O)c(N)n2-c1c(C)c(O)cc(F)c1C [Example 120, 2-amino-1-(3-fluoro-5-hydroxy-2,6-dimethylphenyl)-6-methyl-5-(trifluoromethyl)-1H-pyrrolo[2,3-b]pyridine-3-carboxamide]	8.04			7.85
Cc1c(O)cc(F)c(C)c1-n1c(N)c(C(N)=O)c2cc(-c3ccnn3C)cnc21 (racemic) [Example 118]	8.39	7.19		
Cc1cc(F)c(O)c(C)c1-n1c(N)c(C(N)=O)c2cc(N(C)C)c(C)nc21 (atropisomer, axis not shown) [Example 169.1]	8.20	7.11		
Cc1nc2c(cc1-c1ncco1)c(C(N)=O)c(N)n2-c1c(C)c(O)cc(F)c1C [Example 121]	8.29	7.68		
Cc1c(O)cc(F)c(C)c1-n1c(N)c(C(N)=O)c2cc3ccccc3nc21 [Example 191]	8.55	7.80		
C#Cc1cnc2c(c1)c(C(N)=O)c(N)n2-c1c(C)c(O)cc(F)c1C [Example 101]	8.17	7.03		
C=Cc1cc2c(C(N)=O)c(N)n(-c3c(C)c(O)cc(F)c3C)c2nc1C (racemic) [Example 111]	8.45	7.89		
Cc1nc2c(cc1N1CCOCC1)c(C(N)=O)c(N)n2-c1c(C)c(O)cc(F)c1C [Example 134]	7.47	7.25		
Cc1cc2c(C(N)=O)c(N)n(-c3c(C)c(O)cc(F)c3C)c2nc1C [Example 20, 2-amino-1-(3-fluoro-5-hydroxy-2,6-dimethylphenyl)-5,6-dimethyl-1H-pyrrolo[2,3-b]pyridine-3-carboxamide]	7.82	7.40		
Cc1nc2c(cc1Br)c(C(N)=O)c(N)n2-c1c(C)c(O)cc(F)c1C (racemic) [Example 104]	8.49	7.82		
C=C(C)c1cnc2c(c1)c(C(N)=O)c(N)n2-c1c(C)c(O)cc(F)c1C (atropisomer, axis not shown) [Example 133.1]	8.61		7.92	
Cc1cc(F)c(O)c(C)c1-n1c(N)c(C(N)=O)c2cc(C(C)C)cnc21 (atropisomer, axis not shown) [Example 170.2]	8.00	7.10		
Cc1c(O)cc(F)c(C)c1-n1c(N)c(C(N)=O)c2cc(C(C)C)cnc21 (atropisomer, axis not shown) [Example 113.2]	8.39	8.52		
Cc1cc2c(C(N)=O)c(N)n(-c3c(C)c(O)cc(F)c3C)c2nc1C (atropisomer, axis not shown) [Example 21]	8.38		7.70	
Cc1nc2c(cc1C1CCCC1)c(C(N)=O)c(N)n2-c1c(C)c(O)cc(F)c1C [Example 112]	7.47	7.74		
Cc1c(O)cc(F)c(C)c1-n1c(N)c(C(N)=O)c2cc(C3CCCCC3)cnc21 [Example 102]	7.56	7.09		
Cc1nc(C2CC2)c2c(C(N)=O)c(N)n(-c3c(C)ccc(O)c3C)c2n1 (atropisomer, axis not shown) [Example 62.2]	7.84	7.22		
